Source: patent US20120029187A1, “HALOALKYLSULFONANILIDE DERIVATIVE” (Nissan Chemical Industries, Ltd., priority 2009, published 2012)

What was measured:
Type in all cases: in vivo
water foxtail [1] = test: Test Example 4: herbicidal effect in foliage treatment; conditions: dose 6.3 g/a, three weeks after application
Summary of the method: (§1)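 Weeds and crops sown in sterilized diluvial soil under ~1.5 cm cover and grown in greenhouse at 25 to 30° C. At 14 days, water-diluted emulsifiable concentrate sprayed onto foliage at set doses (g/a); herbicidal effect scored on a rating scale three weeks after application.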

redroot pigweed [2] = test: as above; conditions: dose 6.3 g/a, three weeks after application
Summary of the method: as §1

giant foxtail [3] = test: as above; conditions: dose 6.3 g/a, three weeks after application
Summary of the method: as §1

beadstraw = test: as above; conditions: dose 6.3 g/a, three weeks after application
Summary of the method: as §1

Italian ryegrass [4] = test: as above; conditions: dose 6.3 g/a, three weeks after application
Summary of the method: as §1

common lambsquater [5] = test: as above; conditions: dose 6.3 g/a, three weeks after application
Summary of the method: as §1

barnyardgrass [6] = test: as above; conditions: dose 6.3 g/a, three weeks after application
Summary of the method: as §1

wild oat [7] = test: as above; conditions: dose 6.3 g/a, three weeks after application
Summary of the method: as §1

common chickweed [8] = test: as above; conditions: dose 6.3 g/a, three weeks after application
Summary of the method: as §1

common ragweed [9] = test: as above; conditions: dose 6.3 g/a, three weeks after application
Summary of the method: as §1

large crabgrass [10] = test: as above; conditions: dose 6.3 g/a, three weeks after application
Summary of the method: as §1

transplanted rice = test: Test Example 1: preemergence treatment under submerged conditions, effect on crop; conditions: dose 2.52 g/a
Summary of the method: (§2)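 Submerged conditions, 4 cm water over alluvial soil. Weeds sown and 2.5-leaf rice transplanted; compound applied preemergence to water surface, doses in g per are. Greenhouse, 25 to 30° C., three weeks, then 0–5 mortality rating.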

bulrush [11] = test: Test Example 1: herbicidal effects in preemergence treatment under submerged conditions; conditions: dose 2.52 g/a
Summary of the method: as §2

ducksalad [12] = test: as above; conditions: dose 2.52 g/a
Summary of the method: as §2

barnyardgrass [13] = test: as above; conditions: dose 2.52 g/a
Summary of the method: as §2

water foxtail [14] = test: Test Example 3: herbicidal effects in soil treatment; conditions: dose 6.3 g/a
Summary of the method: (§3)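 Seeds were sown in sterilized diluvial soil and covered with about 1.5 cm of soil. Compounds, formulated as emulsifiable concentrates and diluted with water, were sprayed evenly over the soil surface at set doses in g/a. Herbicidal effect was scored on a rating scale three weeks later.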

redroot pigweed [15] = test: as above; conditions: dose 6.3 g/a
Summary of the method: as §3

giant foxtail [16] = test: as above; conditions: dose 6.3 g/a
Summary of the method: as §3

Italian ryegrass [17] = test: as above; conditions: dose 6.3 g/a
Summary of the method: as §3

common lambsquater [18] = test: as above; conditions: dose 6.3 g/a
Summary of the method: as §3

barnyardgrass [19] = test: as above; conditions: dose 6.3 g/a
Summary of the method: as §3

wild oat [20] = test: as above; conditions: dose 6.3 g/a
Summary of the method: as §3

common chickweed [21] = test: as above; conditions: dose 6.3 g/a
Summary of the method: as §3

common ragweed [22] = test: as above; conditions: dose 6.3 g/a
Summary of the method: as §3

large crabgrass [23] = test: as above; conditions: dose 6.3 g/a
Summary of the method: as §3

bulrush [24] = test: Test Example 2: herbicidal effects during the vegetation period under submerged conditions; conditions: treatment during the vegetation period under submerged conditions; dose 2.52 g/a
Summary of the method: (§4)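 Barnyardgrass, bulrush and ducksalad were co-sown in alluvial soil flooded to 4 cm and grown in a greenhouse at 25 to 30° C. At the 1- or 2-leaf stage, water-diluted emulsifiable concentrates went onto the water surface at set doses (g/a). Herbicidal effect was scored three weeks later on a graded scale.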

ducksalad [25] = test: as above; conditions: treatment during the vegetation period under submerged conditions; dose 2.52 g/a
Summary of the method: as §4

barnyardgrass [26] = test: as above; conditions: treatment during the vegetation period under submerged conditions; dose 2.52 g/a
Summary of the method: as §4

CC(C)COC(=O)N(c1ccccc1CN1COC(C)CC1=O)S(=O)(=O)C(F)(F)F (stereo not shown) [II-8]
G: water foxtail, herbicidal effect (water foxtail [1]): 5 (mortality of 90% or above (nearly complete death))
K: redroot pigweed, herbicidal effect (redroot pigweed [2]): 0 (mortality of less than 5% (almost ineffective))
E: giant foxtail, herbicidal effect (giant foxtail [3]): 4 (mortality of at least 70% and less than 90%)
O: beadstraw, herbicidal effect (beadstraw): 1 (mortality of at least 5% and less than 20%)
H: Italian ryegrass, herbicidal effect (Italian ryegrass [4]): 0 (mortality of less than 5% (almost ineffective))
L: common lambsquater, herbicidal effect (common lambsquater [5]): 5 (mortality of 90% or above (nearly complete death))
A: barnyardgrass, herbicidal effect (barnyardgrass [6]): 5 (mortality of 90% or above (nearly complete death))
F: wild oat, herbicidal effect (wild oat [7]): 0 (mortality of less than 5% (almost ineffective))
N: common chickweed, herbicidal effect (common chickweed [8]): 1 (mortality of at least 5% and less than 20%)
J: common ragweed, herbicidal effect (common ragweed [9]): 4 (mortality of at least 70% and less than 90%)
D: large crabgrass, herbicidal effect (large crabgrass [10]): 5 (mortality of 90% or above (nearly complete death))
a: transplanted rice, effect on crop (evaluation scale 0-5) (transplanted rice): 0 (mortality of less than 5% (almost ineffective))
B: bulrush, herbicidal effect (evaluation scale 0-5) (bulrush [11]): 5 (mortality of 90% or above (nearly complete death))
C: ducksalad, herbicidal effect (evaluation scale 0-5) (ducksalad [12]): 5 (mortality of 90% or above (nearly complete death))
A: barnyardgrass, herbicidal effect (evaluation scale 0-5) (barnyardgrass [13]): 5 (mortality of 90% or above (nearly complete death))
G: water foxtail, herbicidal effect (evaluation scale 0-5) (water foxtail [14]): 5 (mortality of 90% or above (nearly complete death))
K: redroot pigweed, herbicidal effect (evaluation scale 0-5) (redroot pigweed [15]): 0 (mortality of less than 5% (almost ineffective))
E: giant foxtail, herbicidal effect (evaluation scale 0-5) (giant foxtail [16]): 4 (mortality of at least 70% and less than 90%)
H: Italian ryegrass, herbicidal effect (evaluation scale 0-5) (Italian ryegrass [17]): 0 (mortality of less than 5% (almost ineffective))
L: common lambsquater, herbicidal effect (evaluation scale 0-5) (common lambsquater [18]): 4 (mortality of at least 70% and less than 90%)
A: barnyardgrass, herbicidal effect (evaluation scale 0-5) (barnyardgrass [19]): 5 (mortality of 90% or above (nearly complete death))
F: wild oat, herbicidal effect (evaluation scale 0-5) (wild oat [20]): 0 (mortality of less than 5% (almost ineffective))
N: common chickweed, herbicidal effect (evaluation scale 0-5) (common chickweed [21]): 3 (mortality of at least 40% and less than 70%)
J: common ragweed, herbicidal effect (evaluation scale 0-5) (common ragweed [22]): 5 (mortality of 90% or above (nearly complete death))
D: large crabgrass, herbicidal effect (evaluation scale 0-5) (large crabgrass [23]): 4 (mortality of at least 70% and less than 90%)
B: bulrush, herbicidal effect (evaluation scale 0-5) (bulrush [24]): 5 (mortality of 90% or above (nearly complete death))
C: ducksalad, herbicidal effect (evaluation scale 0-5) (ducksalad [25]): 4 (mortality of at least 70% and less than 90%)
A: barnyardgrass, herbicidal effect (evaluation scale 0-5) (barnyardgrass [26]): 5 (mortality of 90% or above (nearly complete death))
